Data as given in patent US6646151B1 (dated 2003).

melting point [°C]	Structure (SMILES)
91 to 93	C#CCO/N=C(/C(C)=NOCc1ccccc1C(=COC)C(=O)OC)c1ccc(F)cc1
102 to 103	CO/C=C(/C(=O)OC)c1ccccc1CO/N=C(C)/C(=N/OC)c1ccc(OCc2cccc(C(F)(F)F)c2)cc1
90 to 93	CCO/N=C(/C(C)=NOCc1ccccc1C(=NOC)C(=O)OC)c1ccc(Oc2ccc(Cl)cc2)cc1
